According to patent US5608095A, “Alkyl-4-silyl-phenols and esters thereof as antiatherosclerotic agents” (Hoechst Marion Roussel, Inc., priority 1996, dated 1997):
Like-named read-outs stand apart in the source and are kept apart here.

Tests used:
[1] = Food consumption, body and liver weight in cholesterol-fed rabbits; assay type: in vivo, female New Zealand White rabbits; details: diet 0.4%, 7 days
Procedure: (§1) Five independent experiments were performed in the following manner. […] Female New Zealand White rabbits (Hazelton, ~2.0-2.3 kg) were fed 0.2% cholesterol enriched rabbit chow (Purina #5322) with or without 0.4% MDL compound (except, MDL 108,804 at 0.26% and MDL 103,491 repeated at 0.6%). The MDL compounds were solubilized in 100% ethanol. MDL 108,208 was not soluble in 100% ethanol, but it was soluble in diethyl ether:ethanol (3:2 by volume). The chow was sprayed with the MDL mixtures and allowed to dry overnight in a chemical fume hood. Control chow was sprayed with ethanol. Rabbits were fed 100 grams food per day for 7 days (0.6% MDL 103,491 were fed for 14 days); water was available ad libitum. On day 7, rabbits (fasted overnight) were bled (~2 mL) from marginal ear vein; 0.6% MDL 103,491 treated rabbits were tested on day 14. They were euthanized by carbon dioxide overdose. The total body and liver weights were recorded in grams. Food consumption was recorded as grams.cndot.day^-1 .cndot.rabbit^-1. Aliquots of fresh serum were used for clinical chemistries, lipoprotein cholesterol determination, thiobarbituric acid reactive substances (TBARS) and compound and metabolite concentrations in serum. Livers (~5 gram aliquots) were frozen at -20° C. for compound and metabolite concentration determination at a later time.

[2] = system: serum cholesterol, LDL, HDL, triglycerides; test: Serum lipids and lipoprotein cholesterol in cholesterol-fed female New Zealand White rabbits; assay type: in vivo; details: Oryctolagus cuniculus, po, 168 h, rabbit serum, diet 0.4%, 7 days
Procedure: as §1
Blood was allowed to clot at room temperature for 30 minutes. Serum was obtained after centrifugation for 10 min at 5° C. at 3000 rpm in a Beckman GPKR centrifuge with a GH rotor. Fresh serum was analyzed by a COBAS MIRA autoanalyzer (Roche Diagnostics) using Roche diagnostic reagents for total cholesterol (CHOL, kit #44334) and triglyceride (TG, kit #44120). Cholesterol and triglycerides were calculated as mg/dL.
Lipoprotein fractions (very low density lipoprotein, VLDL, low density lipoprotein, LDL and high density lipoprotein, HDL) were separated on a Sepharose 6HR column (1×30 cm, Pharmacia) attached to a Waters Powerline HPLC system. Fifty μL of serum were injected onto the column and eluted with phosphate buffered saline, pH 7.4, at a flow rate of 0.5 mL/min. Cholesterol reagent (Roche Diagnostics, kit #44334, diluted with 20 mL water and then with 20 mL of 0.9% saline) was added at 0.2 mL/min to the post column eluant and incubated in a knitted PFTE Kratos reaction coil (Applied Biosystems) at 37° C. for 5 min. Absorbance was measured at 500 nm. The lipoprotein subfractions were quantitated as follows: [formula]

[3] = HPLC quantitation of compound and metabolite concentration in rabbit serum and liver; assay type: in vivo, female New Zealand White rabbits; details: diet 0.4%, 7 days
Procedure: as §1
Serum and liver concentrations of parent compounds and the metabolites, bisphenol and diphenoquinone, were determined by reverse phase HPLC using a Waters 990 Powerline system. Livers (1 gram) were homogenized with 5.0 mL PBS, pH 7.4, using a Polytron tissue homogenizer at setting 5 for 20-30 seconds. Serum or liver homogenates were extracted as follows: 100 μL of either serum or homogenate were added to 2.0 mL diethyl ether:ethanol (3:1) while vortexing the tube. The sample tubes were capped and centrifuged for 10 min at 5° C. at 3500 rpm in a Beckman GPKR centrifuge with a GH 3.7 rotor. The supernatants were transferred to clean tubes and dried under N2. Samples were reconstituted with 200 μL of acetonitrile:hexane:0.1M ammonium acetate (90:6.5:3.5, by vol.). Then, 100 μL were injected onto a Waters Deltapak C18-300 Å column, and eluted with an 83% acetonitrile:17% water mobile phase at a flow rate of 1.5 mL/min. Absrobances at the wavelengths of 240, 254, and 420 nm were recorded. Compound concentrations were calculated from known quantities of authentic parent compounds after correction for recovery; the range of recovery from spiked samples was 40 to 100%. The lowest detectable limit for this class of compounds was ~0.5 μg/mL. Concentrations were calculated as μg/mL of serum and μg/g of liver.

[4] = system: oxidation of serum lipids; test: TBARS assay, serum of cholesterol-fed rabbits; assay type: in vivo, female New Zealand White rabbits; details: Oryctolagus cuniculus, po, 168 h; rabbit serum, diet 0.4%, 7 days; read-out: TBARS, percent of control
Procedure: as §1
TBARS are a qualitative indication of the oxidation of lipids in a sample. In this assay the oxidation of serum lipids is initiated with CuSO4, resulting in the formation of aldehydes, such as malondialdehyde (MDA). Upon incubation with thiobarbituric acid, the absorbance of the aldehydes can be detected at 530-540 nm. TBARS values which are lower than control serum values indicate the relative ability of a compound to inhibit the oxidation. TBARS were measured as follows: 50 μL of serum were mixed with 50 μL of 0.9% saline and 400 μL of a 5 mM CuSO4 solution and incubated at 37° C. for 5 hr. The reactions were stopped by addition of 1.0 mL of 20% trichloroacetic acid. Then 1.0 mL of 0.67% thiobarbituric acid in 0.05N sodium hydroxide was added, mixed, and the samples incubated for 30 min at 90° C. Samples were centrifuged briefly to pellet undissolved material, and the supernatants were transferred to a 96-well microtiter plate. Absorbances were measured at 540 nm using a Biotek model EL311 microplate reader. The nmoles of MDA produced were calculated from a standard curve of 0 to 10 nmoles of MDA prepared from malonaldehyde bis(dimethylacetal). Serum samples from treated rabbits were compared to serum samples from control rabbits that received no MDL compound.

[5] = Solubility in solvent for spraying on chow; assay type: physicochemical
Procedure: as §1

SMILES: COc1ccc([Si](C)(COc2cc(C(C)(C)C)c(O)c(C(C)(C)C)c2)c2ccc(OC)cc2)cc1 [MDL 108,208]
- food (grams eaten per day per rabbit), percent of control [1]: 100%
- body wt., percent of control ([1]; rabbit): 97%
- lw/bw (liver weight/body weight), percent of control ([1]; rabbit): 103%
- response vs control in vivo at 0.4 % ([2]; read-out: HDL cholesterol, percent of control): 97%
- response vs control in vivo at 0.4 % ([2]; read-out: LDL cholesterol, percent of control): 117%
- response vs control in vivo at 0.4 % ([2]; read-out: TRIG (triglycerides), percent of control): 107%
- response vs control in vivo at 0.4 % ([2]; read-out: chol tot. (total cholesterol), percent of control): 109%
- Liver Parent = parent compound concentration ([3]; rabbit liver): 0 µg/g
- Serum Parent = parent compound concentration ([3]; rabbit serum): 0 µg/mL
- response vs control in vivo at 0.4 % [4]: 89%
- solubility in 100% ethanol ([5]; 100% ethanol): not soluble
- solubility in diethyl ether:ethanol ([5]; diethyl ether:ethanol (3:2 by volume)): soluble
